The source of these data is ChEMBL document CHEMBL1143233, “Synthesis, characterization and evaluation of benzimidazole derivative and its precursors as inhibitors of MDA-MB-231 human breast cancer cell proliferation” (2008).

The structures appear in SMILES notation.

The assay relates to MDA-MB-231. As to the kind of experiment: Antiproliferative activity against human MDA-MB-231 cells at 2 mM after 72 hrs by MTS/PMS assay. Conditions: MDA-MB-231, 72 h.
On to `N#Cc1ccc(NC(=O)c2ccc(NCc3ccc(F)cc3)c([N+](=O)[O-])c2)cc1C(F)(F)F`, for which the inhibition at 2000 µM came out at 0%.

Compound `N#Cc1ccc(NC(=O)c2ccc3c(c2)nc(-c2ccc(Cl)cc2Cl)n3Cc2ccc(F)cc2)cc1C(F)(F)F` returned an inhibition at 2000 µM of 26.1%.

The compound `N#Cc1ccc(NC(=O)c2ccc(NCc3ccc(F)cc3)c(NC(=O)c3ccc(Cl)cc3Cl)c2)cc1C(F)(F)F` displayed an inhibition at 2000 µM of 0%.

`N#Cc1ccc(NC(=O)c2ccc(NCc3ccc(F)cc3)c(N)c2)cc1C(F)(F)F` came in with an inhibition at 2000 µM of 9.8%.

For the compound `N#Cc1ccc(NC(=O)c2ccc(F)c([N+](=O)[O-])c2)cc1C(F)(F)F`, the inhibition at 2000 µM is 60%.

By inhibition is commonly meant the share of the control response that was lost under treatment. A low value points to little suppression.
